The values that follow come from patent US7816096B2, “Assay solution compositions and methods for GPCR arrays” (priority 2003, dated 2010).

The target in test [1] is neurotensin receptor Subtype-1 (NTR1) (Homo sapiens, UniProt P30989). To be noted: 100 mM NaCl present or absent; 2 nM Bodipy-TMR-neurotensin 2-13.
Description: (§1) For the binding assays, each individual array was incubated with 10 μl of a solution containing labeled ligand(s) at a particular concentration in the absence and presence of varying amounts (0-1000 nM) of unlabeled compounds. The binding buffer used for all experiments was Tris-HCl (50 mM, pH 7.4) containing 10 mM MgCl2, 0.1% BSA and 1 mM EDTA.
(§2) After executing the binding assays, the microarrays are washed and dried, and then examined using Genepix scanner 4000 (Axon Instruments, Union City, Calif.). Using Genepix software, resulting data is analyzed. Each data point in the plots represents the average of at least three replicate micospots. Using non-linear regression analysis (Graphpad PRISM, Graphpad Software Inc., San Diego, Calif.), one can estimate Kd and IC50.
The target of a further test is NTR1 (Rattus norvegicus, UniProt P20789). To be noted: cited from earlier work.
Test [2] deals with T1, muscarinic receptor subtype 1 (M1) (Homo sapiens, UniProt P11229).
T1 sequence (P11229 1-460): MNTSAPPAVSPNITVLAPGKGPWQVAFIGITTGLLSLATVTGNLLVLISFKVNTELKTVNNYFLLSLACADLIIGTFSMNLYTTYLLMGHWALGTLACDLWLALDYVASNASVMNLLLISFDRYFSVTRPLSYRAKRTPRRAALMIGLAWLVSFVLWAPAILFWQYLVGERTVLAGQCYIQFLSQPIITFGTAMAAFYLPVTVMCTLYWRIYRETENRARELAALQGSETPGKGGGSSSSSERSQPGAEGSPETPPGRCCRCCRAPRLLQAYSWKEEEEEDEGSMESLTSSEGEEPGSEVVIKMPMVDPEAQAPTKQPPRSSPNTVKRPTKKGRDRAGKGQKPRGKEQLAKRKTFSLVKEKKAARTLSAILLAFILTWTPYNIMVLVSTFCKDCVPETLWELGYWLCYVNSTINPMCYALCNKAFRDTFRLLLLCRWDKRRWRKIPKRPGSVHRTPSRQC
Description: multiplexed competitive binding assay on GPCR microarray. To be noted: 1 uM unlabeled telenzepine; cocktail of labeled ligands incl. 2 nM Cy3B-telenezepine.
Description: FIGS. 2C & 2D, respectively, are graphs of the percent of total detected signal in the presence and absence of 1 μM telenzepine.
A single buffered binding solution composition, according to the invention—including for example, 50 mM Tris-HCl, pH 7.4, 10 mM MgCl2, 1 mM EDTA, 0.1 wt. % BSA—is used for multiplexed competitive binding assay. […] Telenzepine is an antagonist for M1 receptor alone.
as §1, §2

NTR1, sequence (P20789 whole entry): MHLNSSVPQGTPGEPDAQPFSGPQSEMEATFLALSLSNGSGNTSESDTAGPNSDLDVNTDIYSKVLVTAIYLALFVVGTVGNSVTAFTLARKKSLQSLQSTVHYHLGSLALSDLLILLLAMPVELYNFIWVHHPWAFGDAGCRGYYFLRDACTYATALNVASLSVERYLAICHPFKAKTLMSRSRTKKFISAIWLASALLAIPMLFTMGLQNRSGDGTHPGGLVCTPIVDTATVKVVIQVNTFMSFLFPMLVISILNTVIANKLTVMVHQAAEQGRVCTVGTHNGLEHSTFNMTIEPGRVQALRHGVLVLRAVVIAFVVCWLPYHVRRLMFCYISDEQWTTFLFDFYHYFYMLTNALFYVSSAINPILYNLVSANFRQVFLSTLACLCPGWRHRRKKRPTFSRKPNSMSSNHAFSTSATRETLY
neurotensin receptor Subtype-1 (NTR1), sequence (P30989 whole entry): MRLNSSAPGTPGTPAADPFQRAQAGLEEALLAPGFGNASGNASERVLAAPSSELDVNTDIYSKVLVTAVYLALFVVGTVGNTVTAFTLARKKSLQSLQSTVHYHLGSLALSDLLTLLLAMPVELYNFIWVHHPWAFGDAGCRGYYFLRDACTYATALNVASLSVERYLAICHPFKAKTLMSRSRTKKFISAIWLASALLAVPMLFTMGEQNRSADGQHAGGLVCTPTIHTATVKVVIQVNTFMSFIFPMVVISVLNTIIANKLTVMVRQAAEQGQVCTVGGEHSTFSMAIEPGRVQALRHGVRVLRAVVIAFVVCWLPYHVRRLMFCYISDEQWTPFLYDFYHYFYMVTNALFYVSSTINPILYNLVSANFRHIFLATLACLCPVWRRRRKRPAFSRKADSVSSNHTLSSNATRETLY

In the case of `[Cl-].[Na+]` [NaCl], the “effect on binding of BT-NT to NTR1 (total binding signal)” value in test [1] was “strongly influences”.

The term IC50 denotes the point on the concentration scale where inhibition reaches its midpoint. `[Na+]` [sodium ions]: the IC50 on NTR1 (read-out: IC50 for inhibition of binding of radio-labeled neurotensin to NTR1) was 18 mM. Further, at NTR1 (sodium ions at a concentration as low as about 20 mM), the “inhibition of binding of radio-labeled neurotensin to NTR1” value is recorded as “at least 50%”.

For `Cc1scc2c1N(C(=O)CN1CCN(C)CC1)c1ccccc1NC2=O` [telenzepine], the “inhibition of the binding of labeled ligands to M1 receptors” value in test [2] is “specific and selective inhibition”.
